From PubChem BioAssay (NCI)
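The compound was tested at five concentrations on cells cultured in 96-well plates, with a 48-hour exposure period. Here, GI50 denotes the concentration required for 50% inhibition of growth. TGI: total growth inhibition.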 Where a SMILES comes first, the peptide text is derived from it. [ ]: non-standard residue; d: D form.

Assays:
Assay in all cases: NCI-60 cell line screen, 48 h
HCT-116 colon = system: HCT-116 colon
HOP-62 NSCLC = system: HOP-62 NSCLC
M14 melanoma = system: M14 melanoma
NCI-H460 lung = system: NCI-H460 lung
NCI-H522 lung = system: NCI-H522 lung
OVCAR-3 ovarian = system: OVCAR-3 ovarian
SK-MEL-2 melanoma = system: SK-MEL-2 melanoma
HCC-2998 colon = system: HCC-2998 colon
HS 578T breast = system: HS 578T breast
LOX IMVI melanoma = system: LOX IMVI melanoma

SMILES	TGI (HCT-116 colon) [µM]	TGI (HOP-62 NSCLC) [µM]	TGI (M14 melanoma) [µM]	TGI (NCI-H460 lung) [µM]	TGI (NCI-H522 lung) [µM]	TGI (OVCAR-3 ovarian) [µM]	TGI (SK-MEL-2 melanoma) [µM]	GI50 (HCC-2998 colon) [µM]	TGI (HCC-2998 colon) [µM]	GI50 (HCT-116 colon) [µM]	GI50 (HOP-62 NSCLC) [µM]	GI50 (HS 578T breast) [µM]	TGI (HS 578T breast) [µM]	GI50 (M14 melanoma) [µM]	GI50 (NCI-H460 lung) [µM]	GI50 (NCI-H522 lung) [µM]	GI50 (OVCAR-3 ovarian) [µM]	TGI (LOX IMVI melanoma) [µM]	GI50 (LOX IMVI melanoma) [µM]	GI50 (SK-MEL-2 melanoma) [µM]
CC1=CC(=O)N2C(OC[C@@H]2c2ccccc2)O1 (stereo not given in full)	> 100	> 100	> 100	> 100	> 100	> 100	> 100													
COc1ccc(F)cc1-c1ccnc2[nH]c(C3=CCN(C4CCC(CC(=O)O)CC4)CC3)cc12 (stereo not given)	> 100	> 100	1.93	> 100	0.714	> 100		0.299	> 100	0.163	0.362	0.177	0.965	0.275	0.236	0.159	0.107			
N#CC(C#N)C(c1ccccc1)c1ccccc1	> 100	> 100	> 100	> 100	> 100	> 100	> 100		> 100									> 100		
O=C1C(=Cc2ccc(F)cc2)C(=O)c2ccccc21	> 100	> 100	> 100	> 100	> 100	> 100	> 100		> 100											
O/N=C1\C(=C\c2ccc3c(c2)OCCO3)CCCC1C(NO)c1ccc2c(c1)OCCO2 (stereo not given)	40.4	52.3	34.4	51.3	29.6	39.6			65.3									29.1		
c1ccc(-c2cc3n4c(-c5ccccc5)nn(-c5ccccc5)c4cnc-3n2)cc1	> 50	> 50	> 50		> 50	> 50	> 50			3.61	13.2	9.62	> 50	> 50		> 50	> 50	> 50	> 50	> 50
CC/C(C)=C1\CCC(CN(C)C)C1=O (stereo not given)	31.7	> 100	33.6	33.4		33.2	32.5		39.9									40.7		
CCSc1nc(N)c2cnn(CC)c2n1	32.8	80.7	30.5	78	> 100	42.6	5.88			5.94	20.1	4.19	26	15.1	23.9	> 100	4.59	8	2.23	2.12
CC1=C2C3OC(=O)C(C)C3C(O)C[C@@]2(C)C(=O)CC1 (stereo not given in full)	> 100	> 100	> 100	> 100	> 100	> 100			> 100									> 100		
O=[N+]([O-])c1ccc2nc(-c3ccc(Cl)cc3)[nH]c2c1	32	40.1	34.5	45.4	30.5	89.3							71.7					35.3		
CC(=O)OC1=C(CC(C)(C)C)C(=O)c2ccccc2C1=O	75.5	> 100	> 100	79.3			99.4		> 100				50.5					> 100		
CCCCCC/C(CC(=O)CCC(=O)NCCc1ccccc1)=N\Nc1ccc([N+](=O)[O-])cc1[N+](=O)[O-]	> 100	> 100	> 100	> 100	> 100	> 100	> 100		> 100									> 100		
NC1=Nc2ccccc2Sc2ccccc21	> 100	> 100	> 100	> 100	> 100	> 100	> 100		> 100									> 100		
Cc1cc2nc(-c3ccc(O)c(O)c3)n(Cc3ccc(O)c(O)c3)c2cc1C	35.1	> 100	> 100	43.1	23.9	77		24.6	56.3	19.6	45.6	41.3	> 100	39.2	13.4	6.71	14.6	28.4	13.1	
CN(C)C(=S)/N=c1\ss/c(=N\S(=O)(=O)c2ccccc2)n1C	> 100	> 100	> 100	> 100	> 100		> 100		> 100									> 100		
CCOC(=O)CN1C(=O)C(=O)N(c2ccc(OC)c3ccccc23)C1=O	> 100	> 100	> 100		> 100	> 100	> 100		> 100									> 100		
CN1CCN(c2nc3cc(F)ccc3n3cccc23)CC1	> 100	> 100	34.5	43	> 100	> 100			> 100				97.9					31.4		
CC(=O)/C(=C/N1CCN(C(=O)c2ccco2)C1=S)C(=O)c1ccccc1	16.6	27.7	13.1	22.9		> 50				6.39	11.7			6.32	7.04		17.2	20.4	8.91	
CCN(CC)CCNc1ccc([N+](=O)[O-])c2nc3ccc(OC)cc3c(N)c12	0.284	3.74	2.97	2.67	0.551	3.55	3.22						2.89					0.344		
N#CNC1=NCCC(=O)N1CCc1c[nH]c2ccccc12	> 100	> 100	> 100			> 100			> 100									> 100		
CSCC[C@H](NC(=O)[C@@H](N)CC(N)=O)C(=O)N[C@@H](Cc1c[nH]c2ccccc12)C(=O)N[C@@H](CCC(N)=O)C(=O)N[C@@H](CCC(=O)O)C(=O)N[C@H](C(=O)NCC(=O)N[C@@H](CCCCN)C(=O)N[C@H](C)C(=O)O)C(C)C (H-NMWQEVGK[dA]-OH)	> 100	> 100	> 100	> 100		> 100			> 100				> 100					> 100		
